Like-named read-outs stand apart in the source and are kept apart here. A value given as a limit tells only on which side of the number the result lay.

In one experiment the target is T1, dopamine transporter (Macaca fascicularis, UniProt Q9GJT6).
T1 construct: The caudate-putamen was dissected from coronal slices and yielded 1.4±0.4 g tissue; Membranes were prepared as described previously; from tissue; host or cells: caudate-putamen membranes of adult cynomolgus and rhesus monkeys
Description: Dopamine transporter assay: inhibition of {3H}WIN 35,428 binding in caudate-putamen membranes. The arrangement: species or system rhesus or cynomolgus monkey. The following applies: for IC50: {3H}WIN 35,428 binding, monkey caudate-putamen; for SERT/DAT: selectivity ratio of IC50 values.

For another experiment, the target named is T2, serotonin transporter (Macaca mulatta, UniProt Q9MYX0).
T2 construct: The serotonin transporter was assayed in caudate-putamen membranes using conditions similar to those for the dopamine transporter; from tissue; host or cells: caudate-putamen membranes of adult cynomolgus and rhesus monkeys
Description: Serotonin transporter assay: inhibition of {3H}citalopram binding in caudate-putamen membranes. The arrangement: species or system rhesus or cynomolgus monkey.

Another experiment deals with DAT. The following applies: literature value, cited from earlier work; for IC50: binding to the DAT.
Setting [1] is: IC50 (nM) SERT, Table 2, monkey caudate-putamen.
Where [2] appears, read: Table 2, read-out: IC50 (nM) DAT.
Setting [3] is: Table 2, monkey caudate-putamen, read-out: IC50 (nM) SERT.

T2 sequence (Q9MYX0 whole entry): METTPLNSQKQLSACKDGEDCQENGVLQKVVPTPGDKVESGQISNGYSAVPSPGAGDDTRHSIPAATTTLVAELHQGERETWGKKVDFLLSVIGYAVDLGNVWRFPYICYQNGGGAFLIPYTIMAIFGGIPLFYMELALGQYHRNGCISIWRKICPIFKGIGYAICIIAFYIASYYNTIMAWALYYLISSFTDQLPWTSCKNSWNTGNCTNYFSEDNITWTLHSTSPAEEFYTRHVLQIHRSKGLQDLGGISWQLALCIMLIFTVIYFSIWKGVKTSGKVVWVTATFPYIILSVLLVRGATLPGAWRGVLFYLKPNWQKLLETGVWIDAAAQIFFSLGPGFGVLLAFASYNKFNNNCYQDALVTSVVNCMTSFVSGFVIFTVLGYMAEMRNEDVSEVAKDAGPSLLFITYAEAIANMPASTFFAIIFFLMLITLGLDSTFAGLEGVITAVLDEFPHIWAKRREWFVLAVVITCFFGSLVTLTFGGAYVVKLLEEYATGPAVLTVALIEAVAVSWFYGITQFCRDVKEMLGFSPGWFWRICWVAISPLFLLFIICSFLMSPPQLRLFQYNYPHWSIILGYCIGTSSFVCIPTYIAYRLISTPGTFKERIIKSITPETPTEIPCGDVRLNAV
T1 sequence (Q9GJT6 whole entry): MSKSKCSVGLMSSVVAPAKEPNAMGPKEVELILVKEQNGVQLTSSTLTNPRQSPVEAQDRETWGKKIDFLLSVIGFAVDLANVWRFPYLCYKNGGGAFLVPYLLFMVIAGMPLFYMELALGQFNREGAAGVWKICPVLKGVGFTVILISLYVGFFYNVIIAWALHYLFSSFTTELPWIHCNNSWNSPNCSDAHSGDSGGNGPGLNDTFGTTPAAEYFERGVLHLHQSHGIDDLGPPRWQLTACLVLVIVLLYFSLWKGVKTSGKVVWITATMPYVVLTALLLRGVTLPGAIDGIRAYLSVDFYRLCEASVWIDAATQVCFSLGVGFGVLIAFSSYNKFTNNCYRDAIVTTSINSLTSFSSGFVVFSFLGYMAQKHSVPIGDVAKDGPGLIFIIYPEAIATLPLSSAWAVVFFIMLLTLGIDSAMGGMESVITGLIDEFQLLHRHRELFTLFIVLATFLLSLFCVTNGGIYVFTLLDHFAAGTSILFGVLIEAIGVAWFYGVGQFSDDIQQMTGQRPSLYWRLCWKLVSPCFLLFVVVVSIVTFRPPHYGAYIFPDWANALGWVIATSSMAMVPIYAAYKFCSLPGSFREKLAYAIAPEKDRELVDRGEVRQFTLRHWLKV

As a reminder, the IC50 is the midpoint of a concentration-inhibition curve. For `COC(=O)[C@@H]1[C@H]2CC[C@@H](C[C@H]1c1ccc(F)cc1)N2C` (relative stereo) [Compound 16c], the 50% inhibitory concentration (IC50) came out at 17.9 nM on dopamine transporter (IC50 (nM) DAT, Table 2) and 1130 nM on serotonin transporter (setting [1]). Besides, the SERT/DAT on dopamine transporter (Table 2) came out at 63.
As for `COC(=O)[C@@H]1[C@H]2C[C@H](O)[C@@H](C[C@H]1c1ccc(Cl)c(Cl)c1)N2C` (relative stereo) [Compound 17a, 2β-Carbomethoxy-3α-(3,4-dichlorophenyl) -6β-hydroxy-8-methyl-8-azabicyclo{3.2.1}octane], the IC50 on dopamine transporter (IC50 (nM) DAT, Table 2) amounted to 6.09 nM; at serotonin transporter (setting [1]) it was 1450 nM. Also, at dopamine transporter (Table 2), the SERT/DAT turned out to be 238.
The like results for `COC(=O)[C@@H]1[C@H]2C[C@H](O)[C@@H](C[C@H]1c1ccc(F)cc1)N2C` (relative stereo) [Compound 17c, 2βCarbomethoxy-3α-(4-fluorophenyl)-6β-hydroxy-8-methyl-8-azabicyclo{3.2.1}octane] were, in that order, 739 nM, 5820 nM and 8.
In the same order, the values of `COC(=O)[C@@H]1[C@H]2C[C@H](O)[C@@H](C[C@H]1c1ccccc1)N2C` (relative stereo) [Compound 17d, 2β-Carbomethoxy-3α-phenyl-6β-hydroxy-8-methyl-8-azabicyclo{3.2.1}octane] are 3530 nM, greater than 10000 nM and greater than 3.
In the same order, the values of `COC(=O)[C@@H]1[C@H]2[C@H](O)C[C@@H](C[C@H]1c1ccc(Cl)c(Cl)c1)N2C` (relative stereo) [Compound 18a, 2β-Carbomethoxy-3α(3,4-dichlorophenyl)-7β-hydroxy-8-methyl-8-azabicyclo{3.2.1}octane] are 1.19 nM, 1390 nM and 1,170.
Regarding `COC(=O)[C@@H]1[C@H]2[C@H](O)C[C@@H](C[C@H]1c1ccccc1)N2C` (relative stereo) [Compound 18d, 2β-Carbomethoxy-3α-phenyl-7β-hydroxy-8-methyl-8-azabicyclo{3.2.1}octane], the half-inhibitory concentration (IC50) at dopamine transporter (IC50 (nM) DAT, Table 2) was 518 nM; at serotonin transporter (setting [1]), greater than 100000 nM. Further, the SERT/DAT on dopamine transporter (Table 2) was greater than 190.
In the same order, the values of `COC(=O)C1C(c2ccc(Cl)c(Cl)c2)CC2CC(O)C1N2C` (single isomer, unassigned) [(1R)-18a] are 482 nM, 5300 nM and 11.
For the compound `COC(=O)C1C(c2ccc(Cl)c(Cl)c2)CC2CC(O)C1N2C` (single isomer, unassigned) [(1S)-18a], the half-inhibitory concentration (IC50) on dopamine transporter (IC50 (nM) DAT, Table 2) came out at 0.76 nM; on serotonin transporter (setting [1]) it was 1220 nM.
Turning to `COC(=O)[C@H]1[C@@H](OC(=O)c2ccccc2)C[C@@H]2CC[C@H]1N2C` [(1R)-(−)-cocaine], in the experiment with DAT, the “binds at the dopamine transporter more potently than (1S)-(+)-cocaine” value is given as “about 200 fold”.
As for `COC(=O)[C@@H]1[C@H]2CC[C@@H](C[C@H]1c1ccc(Cl)c(Cl)c1)N2C` [Compound 16a], the half-maximal inhibitory concentration (IC50) at dopamine transporter (IC50 (nM) DAT, Table 2) was 0.38 nM; on serotonin transporter (setting [1]), 27.7 nM. Also, the SERT/DAT at dopamine transporter (Table 2) was determined as 73.
Take `COC(=O)C1C(c2ccc3ccccc3c2)CC2C(O)CC1N2C` (stereo not drawn) [Compound 17b, 2β-Carbomethoxy-3α-(2-naphthyl)-6β-hydroxy-8-methyl-8-azabicyclo{3.2.1}octane]: the SERT/DAT at dopamine transporter (Table 2) is 6. Moreover, the half-maximal inhibitory concentration (IC50) at dopamine transporter (setting [2]) came to 32 nM; at serotonin transporter (setting [3]), 180 nM.
On to `COC(=O)C1C(c2ccc3ccccc3c2)CC2CC(O)C1N2C` (stereo not drawn) [Compound 18b, 2β-Carbomethoxy-3α-(2-naphthyl)-7β-hydroxy-8-methyl-8-azabicyclo{3.2.1}octane], for which the SERT/DAT on dopamine transporter (Table 2) was 34. In addition, the concentration for half-maximal inhibition (IC50) at serotonin transporter (setting [3]) is 94 nM.
In the case of `COC(=O)[C@@H]1[C@H]2[C@H](O)C[C@@H](C[C@H]1c1ccc(F)cc1)N2C` [Compound 18c, 2β-Carbomethoxy-3α-(4-fluorophenyl)-7β-hydroxy-8-methyl-8-azabicyclo{3.2.1}octane], on dopamine transporter (Table 2), the SERT/DAT is recorded as greater than 120. Also, the IC50 at dopamine transporter (setting [2]) is 110 nM; at serotonin transporter (setting [3]) it was greater than 20000 nM.
Regarding `CCC(=O)C1C(c2ccc(Cl)c(Cl)c2)CC2CC(O)C1N2C` (stereo not drawn) [Compound 26, 1-{3α-(3,4-Dichlorophenyl)-7β-hydroxy-8-methyl-8-azabicyclo{3.2.1}oct-2-yl}propan-1-one], the IC50 turned out to be 1.1 nM at dopamine transporter (Table 1, read-out: IC50 (nM) DAT) and 2520 nM at serotonin transporter (Table 1, monkey caudate-putamen, read-out: IC50 (nM) SERT).
Take `COC(=O)C1C(c2ccc(Cl)c(Cl)c2)CC2CCC1N2C` (stereo not drawn) [Compound O-401, 2-carbomethoxy-3-(3,4-dichlorophenyl)-N -methyltropane]: the IC50 in the experiment on DAT is 1.09 nM.
As to `COC(=O)C1C(c2ccc(F)cc2)CC2CCC1N2C` (stereo not drawn) [WIN 35,428, 2-carbomethoxy-3-(4-fluorophenyl)-N-methyltropane], in the experiment on DAT, the concentration for half-maximal inhibition (IC50) is […].

These data come from US20030125352A1, “Therapeutic tropane compounds” (priority 2001, published 2003).
